Laboratory results taken from publication PMC10258805, “Nonpeptidic Oxazole-Based Prolyl Oligopeptidase Ligands with Disease-Modifying Effects on α-Synuclein Mouse Models of Parkinson’s Disease” (Journal of Medicinal Chemistry, 2023).
Where two headings read alike, the source gives them in different places.

Tests used:
[1] = Stability studies (NMR, MS, polarimetry, long-term monitoring); details: NMR samples in solution, 2-4 days at room temperature; UPLC-MS two or more weeks after isolation
recombinant porcine PREP = target: T1, recombinant porcine PREP (Sus scrofa, UniProt P23687); test: PREP activity assay (inhibition of proteolytic activity); format: biochemical
T1 construct: made in house

[2] = test system: HEK-293 cells stably expressing GFP-LC3B; test: Autophagic flux (GFP-LC3B reporter cells); details: Homo sapiens, HEK293, 24 h
[3] = test system: ROS production in SH-SY5Y cells; test: ROS detection assay under oxidative stress; details: Homo sapiens, 3 h
[4] = test system: αSyn dimerization in Neuro2A (N2A) cells; test: αSyn-dimerization assay (split Gaussia luciferase PCA); details: for activity at 10 µM: Mus musculus, N2a
[5] = target: T2, PREP in mouse brain homogenate (Mus musculus, UniProt Q9QUR6); test: PREP inhibition measured with mouse brain homogenate; format: biochemical
T2 construct: from tissue; host or cells: mouse brain homogenate

[6] = test system: pPP2Ac and PP2Ac in HEK-293 cells; test: PP2A marker assay (Western blot); format: cell-based, human; details: HEK-293, 10 μM, 4 h
LC3BII in HEK-293 cells = test: Autophagy marker LC3BII assay (Western blot); format: cell-based, human; details: HEK-293, 10 μM
[7] = test system: pPP2Ac and PP2Ac in mouse brain; test: PP2A markers in mouse brain (Western blot); format: in vivo; details: 10 mg/kg i.p., 45 min after injection
[8] = test system: AAV2-CBA-αSyn-injected mice; test: Cylinder test in AAV-αSyn PD mouse model; details: 10 mg/kg/day minipump, after 2 weeks of treatment (6-week time point), vs vehicle-treated AAV-αSyn mice
[9] = test system: oligomeric αSyn in AAV-αSyn-injected mice; test: Oligomer-specific αSyn immunoreactivity (OD) in AAV-αSyn PD mouse model; details: 10 mg/kg/day minipump, 4 weeks
[10] = Suc-Gly-Pro-AMC as substrate, 95% CI in brackets, read-out: IC50 (nM) (95% CI)
[11] = read-out: Autophagy at 10 uM (%)
[12] = read-out: GFP signal of the DMSO control (autophagic flux)
[13] = read-out: autophagy at 10 μM (%)
[14] = read-out: ROS production, % of the control
[15] = read-out: aSyn dimerization at 10 uM (%)
[16] = read-out: luminescence signal compared to the DMSO control (αSyn dimerization)
[17] = read-out: αSyn dimer. at 10 μM (%)
[18] = supplementary CSV, read-out: IC50

T1 sequence (P23687 whole entry): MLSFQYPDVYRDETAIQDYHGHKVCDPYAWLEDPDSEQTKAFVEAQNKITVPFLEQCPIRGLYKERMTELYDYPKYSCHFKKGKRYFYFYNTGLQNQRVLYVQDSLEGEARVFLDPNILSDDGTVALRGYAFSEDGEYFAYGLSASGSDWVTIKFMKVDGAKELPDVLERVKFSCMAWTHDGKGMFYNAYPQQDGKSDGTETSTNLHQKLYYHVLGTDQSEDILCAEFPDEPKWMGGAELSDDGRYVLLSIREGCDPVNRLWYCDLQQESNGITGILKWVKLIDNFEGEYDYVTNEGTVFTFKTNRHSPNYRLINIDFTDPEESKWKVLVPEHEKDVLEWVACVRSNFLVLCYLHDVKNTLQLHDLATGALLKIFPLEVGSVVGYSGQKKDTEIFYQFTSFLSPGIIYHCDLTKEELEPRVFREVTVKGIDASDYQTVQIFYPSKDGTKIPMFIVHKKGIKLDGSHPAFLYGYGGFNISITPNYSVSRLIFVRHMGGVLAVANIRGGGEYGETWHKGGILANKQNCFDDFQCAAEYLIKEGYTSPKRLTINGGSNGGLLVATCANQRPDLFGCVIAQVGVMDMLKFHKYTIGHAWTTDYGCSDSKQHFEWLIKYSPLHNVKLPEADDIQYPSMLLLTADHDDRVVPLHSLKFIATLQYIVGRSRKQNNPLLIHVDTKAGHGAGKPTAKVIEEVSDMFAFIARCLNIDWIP
T2 sequence (Q9QUR6 whole entry): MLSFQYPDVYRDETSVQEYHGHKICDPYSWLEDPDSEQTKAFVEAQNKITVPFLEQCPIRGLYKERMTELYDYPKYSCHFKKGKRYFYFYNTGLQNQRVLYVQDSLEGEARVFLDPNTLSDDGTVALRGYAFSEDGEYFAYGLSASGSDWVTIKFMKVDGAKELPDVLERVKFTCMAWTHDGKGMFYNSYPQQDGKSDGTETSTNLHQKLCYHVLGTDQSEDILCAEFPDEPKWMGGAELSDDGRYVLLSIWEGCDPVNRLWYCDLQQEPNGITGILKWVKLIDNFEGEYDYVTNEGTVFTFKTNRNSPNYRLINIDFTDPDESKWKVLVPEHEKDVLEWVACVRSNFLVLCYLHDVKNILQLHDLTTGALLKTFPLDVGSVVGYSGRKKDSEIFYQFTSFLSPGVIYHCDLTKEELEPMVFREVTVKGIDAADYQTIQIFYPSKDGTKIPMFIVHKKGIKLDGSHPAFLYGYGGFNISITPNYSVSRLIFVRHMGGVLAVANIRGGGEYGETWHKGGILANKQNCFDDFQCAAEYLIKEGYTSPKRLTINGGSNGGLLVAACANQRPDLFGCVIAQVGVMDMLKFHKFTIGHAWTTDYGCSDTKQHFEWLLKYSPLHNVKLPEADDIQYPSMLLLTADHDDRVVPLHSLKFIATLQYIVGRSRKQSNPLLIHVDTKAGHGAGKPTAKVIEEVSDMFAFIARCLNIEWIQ

SMILES	IC50 (recombinant porcine PREP; [10]) [nM]	activity at 10 µM [2, 11] [%]	activity at 10 µM [2, 13] [%]	activity at 10 µM ([3]; read-out: ROS at 10 uM (%)) [%]	activity at 10 µM ([3]; read-out: ROS at 10 μM (%)) [%]	activity at 10 µM [3, 14] [%]	activity at 10 µM [4, 15] [%]	activity at 10 µM [4, 16] [%]	activity at 10 µM [4, 17] [%]	also measured
Cc1nc(CCc2cccnc2)oc1N1CCCC1C#N (stereo not drawn) [compound 70]	–	–	–	–	–	–	–	–	–	long-term stability (in words) [1]: lowered the stability
CC(C)c1nc(CCCc2ccccc2)oc1N1CCC[C@H]1C#N [compound 7, 4-Phenylbutanoyl-(4-isopropyl-2-oxazol-5-yl)-2(S)-cyanopyrrolidine]	156	82	82 ± 8	81	81 ± 5	< 88	82	80 to 85	82 ± 13	IC50 (recombinant porcine PREP; read-out: IC50 value): 156 to 445 nM; activity at 10 µM [2, 12]: ≤ 88%
Cc1nc(CCc2ccccc2)oc1N1CCC[C@H]1C#N [compound 15, (S)-1-(4-Methyl-2-phenethyloxazol-5-yl)pyrrolidine-2-carbonitrile]	692	88	88 ± 4	89	89 ± 1	–	75	≤ 75	75 ± 4	activity at 10 µM [2, 12]: ≤ 88%
COc1cc(CCc2nc(C)c(N3CCC[C@H]3C#N)o2)cc(OC)c1 [compound 20, (S)-1-(2-(3,5-Dimethoxyphenethyl)-4-methyloxazol-5-yl)pyrrolidine-2-carbonitrile]	1290	89	89 ± 6	76	76 ± 8	< 88	100	–	100 ± 9	–
Cc1oc(CCCc2ccccc2)nc1C(=O)N1CCC[C@H]1C#N [compound 33, (S)-1-(5-Methyl-2-(3-phenylpropyl)oxazole-4-carbonyl)pyrrolidine-2-carbonitrile]	–	97	97 ± 5	98	98 ± 6	–	109	–	109 ± 6	inhibitory activity (in words) (recombinant porcine PREP): very low inhibitory activities; IC50 (recombinant porcine PREP; [18]): 12900 nM
N#Cc1nc(CCCc2ccccc2)oc1N1CCC[C@H]1C#N [compound 28, (S)-5-(2-Cyanopyrrolidin-1-yl)-2-(3-phenylpropyl)oxazole-4-carbonitrile]	–	97	97 ± 5	93	93 ± 11	–	109	–	109 ± 5	inhibitory activity (in words) (recombinant porcine PREP): very weak inhibitors; IC50 (recombinant porcine PREP; [18]): 76600 nM
Cc1nc(CCCc2ccccn2)oc1N1CCCC1C#N (stereo not drawn) [compound 69]	–	–	–	–	–	–	–	–	–	long-term stability (in words) [1]: lowered the stability
CC(C)Cc1nc(CCCc2ccccc2)oc1N1CCC[C@H]1C#N [compound 8, 4-Phenylbutanoyl-(4-isobutyl-2-oxazol-5-yl)-2(S)-cyanopyrrolidine]	4580	81	81 ± 11	83	83 ± 7	< 88	80	80 to 85	80 ± 6	activity at 10 µM [2, 12]: ≤ 88%
Cc1nc(C(=O)CCc2ccccc2)oc1N1CCCC1 [compound 25, 1-(4-Methyl-5-(pyrrolidin-1-yl)oxazol-2-yl)-3-phenylpropan-1-one]	–	95	95 ± 10	105	105 ± 8	–	110	–	110 ± 6	inhibitory activity (in words) ([5]; Table 2: mouse brain homogenate): very weak inhibitor; IC50 ([5]; measured with mouse brain homogenate, read-out: IC50 (nM) (95% CI)): 90000 nM
COc1ccc(CCCc2nc(C)c(N3CCC[C@H]3C#N)o2)cc1OC [compound 19, (S)-1-(2-(3-(3,4-Dimethoxyphenyl)propyl)-4-methyloxazol-5-yl)pyrrolidine-2-carbonitrile]	115	93	93 ± 2	70	70 ± 9	70	98	–	98 ± 17	–
COc1ccc(CCCc2nc(C)c(N3CCC[C@H]3C#N)o2)cc1 [compound 18, (S)-1-(2-(3-(4-Methoxyphenyl)propyl)-4-methyloxazol-5-yl)pyrrolidine-2-carbonitrile]	65	98	98 ± 1	86	86 ± 6	< 88	100	–	100 ± 5	–
Cc1nc(CCc2cn(C(=O)C(F)(F)F)c3ccccc23)oc1N1CCC[C@H]1C#N [compound 23, (S)-1-(4-Methyl-2-(2-(1-(2,2,2-trifluoroacetyl)-1H-indol-3-yl)ethyl)oxazol-5-yl)pyrrolidine-2-carbonitrile]	120	94	94 ± 3	84	84 ± 7	< 88	87	–	87 ± 11	effect on αSyn dimerization (in words) ([4]; 10 μM, N2A cells): comparable effect as KYP-2047
N#C[C@@H]1CCCN1C(=O)[C@@H]1CCCN1C(=O)CCCc1ccccc1 [KYP-2047, reference compound]	–	–	–	–	–	–	–	–	–	total PP2Ac levels (in words) [6]: elevated total PP2Ac levels; LC3BII levels (in words) (LC3BII in HEK-293 cells; 4 h): significant increase in LC3BII levels; LC3BII levels (in words) (LC3BII in HEK-293 cells; 24 h): significantly elevated LC3BII levels; inactive pPP2Ac levels in mouse brain (in words) [7]: decreased inactive pPP2Ac levels, but this was not significant; levels of PP2Ac in mouse brain (in words) [7]: significantly increased the levels of PP2Ac; use of the ipsilateral forepaw in the cylinder test (in words) [8]: significantly decreased their use of the ipsilateral forepaw; OD of oligomeric αSyn in the SNpc (in words) ([9]; vs vehicle-treated group): did not significantly reduce; OD of oligomer-specific αSyn in the STR (in words) ([9]; vs vehicle-treated mice): decreased the OD of oligomer-specific αSyn
Cc1nc(CCCc2ccccc2)oc1N(C)CC#N [compound 6, 2-(Methyl(4-methyl-2-(3-phenylpropyl)oxazol-5-yl)amino)acetonitrile]	–	96	96 ± 3	94	94 ± 7	–	109	–	109 ± 6	inhibitory activity (in words) (recombinant porcine PREP): very low inhibitory activities; IC50 (recombinant porcine PREP; [18]): 12400 nM
c1ccc(CCCc2ncc(-c3cccs3)o2)cc1 [compound 30, 2-(3-Phenylpropyl)-5-(2-thienyl)oxazole]	–	98	98 ± 10	96	96 ± 9	–	86	80 to 85	86 ± 8	inhibitory activity (in words) (recombinant porcine PREP): strongly reduced inhibitory activities; IC50 (recombinant porcine PREP; [18]): 37300 nM
Cc1nc(-c2ccccc2)oc1N1CCC[C@H]1C#N [compound 13, (S)-1-(4-Methyl-2-phenyloxazol-5-yl)pyrrolidine-2-carbonitrile]	7940	92	92 ± 1	86	86 ± 13	< 88	80	80 to 85	80 ± 9	–
